Assay results: publication PMC12350473, “Pharmacokinetics and brain tissue distribution of Gastrodia elata extract in normal and cerebral ischemic rats: a comparative study” (Frontiers in Pharmacology, 2025)

Legend:
in vivo = conditions: male, Sprague-Dawley, rat, po
[1] = Plasma pharmacokinetics of GEB constituents after oral GEB extract in normal and MCAO rats (UPLC-MS/MS, non-compartmental); conditions: for AUC0-t / Tmax / AUC0−∞ / CLz/F / Cmax / MRT0-t / T1/2 / Vz/F: plasma
[2] = Brain tissue distribution of GEB constituents after oral GEB extract in normal and MCAO rats; assay type: in vivo
Protocol: An independent cohort (n = 6/group) was sacrificed under deep anesthesia (pentobarbital sodium 40 mg/kg, i. p.) at 0.5 h, 1 h, 3 h, and 12 h post-final dosing. Cerebral perfusion was performed with ice-cold normal saline via left ventricular cannulation to eliminate residual blood. Whole brains were rapidly excised, weighed, and homogenized in four volumes of phosphate-buffered saline (pH 7.4) using a tissue grinder (Precellys 24, Bertin Technologies, France). Homogenates were centrifuged at 12,000 × g for 15 min at 4°C. The supernatants were filtered through 0.22 μm PVDF membranes and aliquoted into polypropylene tubes.
Weigh 300 mg of rat brain tissue and add 3 volumes of PBS solution. […] Collect the supernatant to obtain the test tissue homogenate. Take 400 µL of the homogenate, add 50 µL of internal standard solution and 1,150 µL of methanol, then vortex-mix for 5 min.

[3] = tested on: cerebral ischemia in rats; assay: Therapeutic effect of GEB extract on cerebral ischemia (MCAO): mNSS, body weight, survival, TTC staining; assay type: in vivo; conditions: vs MCAO group, GEB low and high dose, nimodipine control
Protocol: High-dose GEB extract was prepared by adding 4.8 g of GEB extract in 40 mL of purified water to make a 120 mg/mL solution (calculated based on the human daily intake of 48 g of GEB).
The low dose of GEB was prepared by adding 2 g of GEB extract in 40 mL of purified water to make a 50 mg/mL solution (calculated based on the human daily intake of 20 g of GEB).
For preparing positive drugs, 2 nimodipine tablets (30 mg/tablet) were ground and added to 50 mL of purified water to make a 1.2 mg/mL solution (calculated based on the human daily intake of 120 mg of nimodipine).
After induction of deep anesthesia with pentobarbital (40 mg/kg), the rats were euthanized by cervical dislocation, followed by decapitation for brain removal. The brains were immediately flash-frozen in a freezer for 20 min. Then, the olfactory bulb and cerebellum were removed, the brain was cut into 6 coronal sections from anterior to posterior, stained with 1% TTC solution in the dark for 20 min at 37°C, and preserved in 4% paraformaldehyde for 30 min.
Rats were allocated into five groups: sham-operated (Sham), MCAO, low-dose GEB extract (GEB-L), high-dose GEB extract (GEB-H), and nimodipine control (NMDP). […] Longitudinal monitoring included body weight tracking and survival assessment, complemented by triphenyltetrazolium chloride (TTC) staining for cerebral infarction evaluation at study termination.

[4] = set-up: method as in Tang et al., 2015; conditions: ref Tang et al., 2015; cited from earlier work
[5] = MCAO rats, GEB extract 1,200 mg/kg oral gavage once daily for 3 days
[6] = MCAO rats, oral GEB extract 4.8 g/kg, n = 8
[7] = MCAO vs normal rats, range over PA, PB, PC, GAS, p < 0.05
[8] = comparison among components after oral GEB extract
[9] = normal rats, oral GEB extract 4.8 g/kg, n = 8

N[C@@H](CCC(=O)N[C@@H](CSCc1ccc(O)cc1)C(=O)NCC(=O)O)C(=O)O [4-HBG, S-(4-hydroxybenzyl) glutathione]
AUC0-t (in vivo; plasma, 1200 mg/kg): 120 ± 37 ng·h/mL | Tmax (in vivo; plasma, 1200 mg/kg): 2.3 ± 1.1 h | AUC0-t (in vivo; plasma, 4.8 g/kg): 113 ± 37.7 ng·h/mL | AUC(0-inf) (in vivo; plasma, 4.8 g/kg): 120 ± 37 ng·h/mL | CL/F (in vivo; plasma, 4.8 g/kg): 1090 mL/min/kg | Cmax (in vivo; plasma, 4.8 g/kg): 24.1 ± 8.4 ng/mL | MRT last (in vivo; plasma, 4.8 g/kg): 4.18 ± 0.51 h | Tmax (in vivo; plasma, 4.8 g/kg): 3.5 ± 0.93 h | Vd/F (in vivo; plasma, 4.8 g/kg): 212 ± 102 L/kg | half-life (in vivo; plasma, 4.8 g/kg): 2.27 ± 1.14 h | AUC0-t [1, 5]: 129 ± 53 ng·h/mL | Tmax ([1]; MCAO rats, GEB extract oral): 2.03 ± 0.2 h | AUC0-t [1, 6]: 124.8 ± 51.3 ng·h/mL | AUC0−∞ [1, 6]: 129.1 ± 52.8 ng·h/mL | CLz/F [1, 6]: 1050 ± 367 mL/min/kg | Cmax [1, 6]: 24.6 ± 11.2 ng/mL | MRT0-t [1, 6]: 4.37 ± 0.50 h | T1/2 [1, 6]: 2.03 ± 0.24 h | Tmax [1, 6]: 3.75 ± 0.71 h | Vz/F [1, 6]: 186.8 ± 73.0 L/kg

OCc1ccc(O[C@@H]2O[C@H](CO)[C@@H](O)[C@H](O)[C@H]2O)cc1 [GAS, gastrodin]
AUC0-t (in vivo; in vivo, 1200 mg/kg): 6620 ng·h/mL | Cmax (in vivo; in vivo, 1200 mg/kg): 6620 ng/mL | AUC0-t (in vivo; in vivo, 4.8 g/kg): 6620 ng·h/mL | AUC(0-inf) (in vivo; in vivo, 4.8 g/kg): 6690 ng·h/mL | CL/F (in vivo; in vivo, 4.8 g/kg): 38.3 mL/min/kg | Cmax (in vivo; in vivo, 4.8 g/kg): 6620 ng/mL | MRT last (in vivo; in vivo, 4.8 g/kg): 0.83 ± 0.06 h | Tmax (in vivo; in vivo, 4.8 g/kg): 0.31 ± 0.12 h | Vd/F (in vivo; in vivo, 4.8 g/kg): 2 ± 0.2 L/kg | half-life (in vivo; in vivo, 4.8 g/kg): 0.6 ± 0.07 h | AUC0-t [1, 5]: 4,836 ± 791 ng*h/mL | Cmax ([1]; MCAO rats, GEB extract 1,200 mg/kg oral once daily for 3 days): 4,646 ± 1,195 ng/mL | CLz/F increase in MCAO rats compared to controls [1, 7]: 1.4–2.0 fold | AUC0-t [1, 6]: 4,835.6 ± 790.9 ng*h/mL | AUC0−∞ [1, 6]: 4,914.0 ± 728.3 ng*h/mL | CLz/F [1, 6]: 53.3 ± 8.3 mL/min/kg | Cmax [1, 6]: 4,646.2 ± 1,195.9 ng/mL | MRT0-t [1, 6]: 0.88 ± 0.20 h | T1/2 [1, 6]: 0.58 ± 0.29 h | Tmax [1, 6]: 0.27 ± 0.16 h | Vz/F [1, 6]: 2.7 ± 1.6 L/kg | BBB penetration / cerebral distribution (in words) [2, 8]: limited BBB penetration | cerebral concentration ([2]; normal rats, brain tissue, GEB extract oral): < 40 ng/mL

OCc1ccc(O)cc1 [HBA, 4-hydroxybenzyl alcohol]
concentration in rats (in words) ([1]; rats after oral GEB extract): very low

COCCOC(=O)C1=C(C)NC(C)=C(C(=O)OC(C)C)C1c1cccc([N+](=O)[O-])c1 (centres unmarked) [NMDP, nimodipine]
therapeutic effect on neurological deterioration, weight loss and infarction [3]: improved these outcomes

O=C(CC(O)(CC(=O)OCc1ccc(O[C@@H]2O[C@H](CO)[C@@H](O)[C@H](O)[C@H]2O)cc1)C(=O)OCc1ccc(O[C@@H]2O[C@H](CO)[C@@H](O)[C@H](O)[C@H]2O)cc1)OCc1ccc(O[C@@H]2O[C@H](CO)[C@@H](O)[C@H](O)[C@H]2O)cc1 [PA, Parishin A]
AUC0-t (in vivo; plasma, 4.8 g/kg): 148 ± 21.9 ng·h/mL | AUC(0-inf) (in vivo; plasma, 4.8 g/kg): 153 ± 23.5 ng·h/mL | CL/F (in vivo; plasma, 4.8 g/kg): 8150 mL/min/kg | Cmax (in vivo; plasma, 4.8 g/kg): 79.8 ± 9.8 ng/mL | MRT last (in vivo; plasma, 4.8 g/kg): 1.26 ± 0.09 h | Tmax (in vivo; plasma, 4.8 g/kg): 0.94 ± 0.18 h | half-life (in vivo; plasma, 4.8 g/kg): 0.74 ± 0.1 h | AUC0-t [1, 6]: 75.4 ± 29.3 ng·h/mL | AUC0−∞ [1, 6]: 85.9 ± 25.0 ng·h/mL | Cmax [1, 6]: 41.5 ± 18.5 ng/mL | MRT0-t [1, 6]: 1.33 ± 0.27 h | T1/2 [1, 6]: 1.41 ± 1.75 h | Tmax [1, 6]: 0.78 ± 0.31 h | Vz/F [1, 6]: 1706.9 ± 1891.6 L/kg | Vz/F [1, 9]: 518.7 ± 88.3 L/kg | CLz/F increase in MCAO rats compared to controls ([1]; rat, in vivo): 1.4–2.0 fold | BBB penetration / cerebral distribution (in words) [2, 8]: superior BBB permeability | average GAS molecules released per parent compound [4]: 1.5 | conversion efficiency of partial hydrolysis in vivo [4]: 50%

O=C(O)CC(O)(CC(=O)OCc1ccc(O[C@@H]2O[C@H](CO)[C@@H](O)[C@H](O)[C@H]2O)cc1)C(=O)OCc1ccc(O[C@@H]2O[C@H](CO)[C@@H](O)[C@H](O)[C@H]2O)cc1 (some centres unmarked) [PB, Parishin B]
AUC0-t (in vivo; plasma, 4.8 g/kg): 215 ± 37.4 ng·h/mL | AUC(0-inf) (in vivo; plasma, 4.8 g/kg): 230 ± 50.9 ng·h/mL | CL/F (in vivo; plasma, 4.8 g/kg): 2790 mL/min/kg | MRT last (in vivo; plasma, 4.8 g/kg): 1.42 ± 0.13 h | Tmax (in vivo; plasma, 4.8 g/kg): 1 h | AUC0-t [1, 6]: 108.0 ± 48.8 ng·h/mL | AUC0−∞ [1, 6]: 123.7 ± 38.8 ng·h/mL | CLz/F [1, 6]: 5497 ± 1755 mL/min/kg | Cmax [1, 6]: 48.8 ± 22.9 ng/mL | MRT0-t [1, 6]: 1.63 ± 0.53 h | T1/2 [1, 6]: 2.16 ± 2.76 h | Tmax [1, 6]: 0.72 ± 0.31 h | Vz/F [1, 6]: 1,034.1 ± 1,468.2 L/kg | Cmax [1, 9]: 112.8 ± 22.8 ng/mL | T1/2 [1, 9]: 1.01 ± 0.42 h | Vz/F [1, 9]: 237.9 ± 98.4 L/kg | CLz/F increase in MCAO rats compared to controls ([1]; rat, in vivo): 1.4–2.0 fold | BBB penetration / cerebral distribution (in words) [2, 8]: superior BBB permeability

O=C(CC(O)(CC(=O)OCc1ccc(O[C@@H]2O[C@H](CO)[C@@H](O)[C@H](O)[C@H]2O)cc1)C(=O)O)OCc1ccc(O[C@@H]2O[C@H](CO)[C@@H](O)[C@H](O)[C@H]2O)cc1 [PC, Parishin C]
AUC0-t (in vivo; plasma, 4.8 g/kg): 56.4 ± 16.2 ng·h/mL | AUC(0-inf) (in vivo; plasma, 4.8 g/kg): 71.1 ± 18.5 ng·h/mL | CL/F (in vivo; plasma, 4.8 g/kg): 1740 mL/min/kg | Cmax (in vivo; plasma, 4.8 g/kg): 21.5 ± 5.8 ng/mL | MRT last (in vivo; plasma, 4.8 g/kg): 1.78 ± 0.3 h | Tmax (in vivo; plasma, 4.8 g/kg): 0.94 ± 0.5 h | half-life (in vivo; plasma, 4.8 g/kg): 1.84 ± 0.56 h | CLz/F increase in MCAO rats compared to controls [1, 7]: 1.4–2.0 fold | AUC0-t [1, 6]: 30.1 ± 9.6 ng·h/mL | AUC0−∞ [1, 6]: 41.5 ± 15.7 ng·h/mL | CLz/F [1, 6]: 3078 ± 1070 mL/min/kg | Cmax [1, 6]: 12.1 ± 4.6 ng/mL | MRT0-t [1, 6]: 1.68 ± 0.29 h | T1/2 [1, 6]: 2.35 ± 2.08 h | Tmax [1, 6]: 1.13 ± 0.35 h | Vz/F [1, 6]: 543.6 ± 442.8 L/kg | Vz/F [1, 9]: 266.7 ± 78.4 L/kg | BBB penetration / cerebral distribution (in words) ([2]; rat, in vivo, po): superior BBB permeability

O=C(O)CC(O)(CC(=O)OCc1ccc(O[C@@H]2O[C@H](CO)[C@@H](O)[C@H](O)[C@H]2O)cc1)C(=O)O (some centres unmarked) [PE, Parishin E]
AUC0-t (in vivo; plasma, 1200 mg/kg): 1310 ng·h/mL | AUC0-t (in vivo; plasma, 4.8 g/kg): 1210 ng·h/mL | AUC(0-inf) (in vivo; plasma, 4.8 g/kg): 1310 ng·h/mL | CL/F (in vivo; plasma, 4.8 g/kg): 697 mL/min/kg | Cmax (in vivo; plasma, 4.8 g/kg): 375 ± 45.5 ng/mL | MRT last (in vivo; plasma, 4.8 g/kg): 2.41 ± 0.33 h | Tmax (in vivo; plasma, 4.8 g/kg): 1.13 ± 0.35 h | Vd/F (in vivo; plasma, 4.8 g/kg): 78.6 ± 24.2 L/kg | half-life (in vivo; plasma, 4.8 g/kg): 1.82 ± 1.13 h | AUC0-t [1, 5]: 1,148 ± 530 ng*h/mL | AUC0-t [1, 6]: 1,107.5 ± 517.6 ng*h/mL | AUC0−∞ [1, 6]: 1,147.5 ± 530.4 ng*h/mL | Cmax [1, 6]: 324.9 ± 129.0 ng/mL | MRT0-t [1, 6]: 2.68 ± 0.76 h | T1/2 [1, 6]: 1.95 ± 1.03 h | Tmax [1, 6]: 1.25 ± 0.46 h | Vz/F [1, 6]: 113.9 ± 64.2 L/kg | BBB penetration / cerebral distribution (in words) [2, 8]: moderate cerebral distribution | concentration at 12 h ([2]; male, Sprague-Dawley, rat, brain, oral, 1200 mg/kg, MCAO rats, 12 h post-final dosing): 4.25 ± 2.46 ng/g
